The target in assay [1] is T1, Glutamate receptor 1 (Rattus norvegicus, UniProt P19490). As to the kind of experiment: Antagonist activity against rat GluR1 flop expressed in Xenopus laevis oocyte assessed as inhibition of glutamate-induced current at holding potential -100 mV by two electrode voltage clamp method. The assay is classed as functional. In general terms: Two-electrode voltage clamp holds a large cell at a set potential and records current.

Assay [2] concerns the target T2, Glutamate receptor ionotropic, AMPA (Rattus norvegicus, UniProt P19490+P19491+P19492+P19493). Nature of the assay: Antagonist activity against rat brain AMPA receptor expressed in Xenopus laevis oocyte assessed as inhibition of kainate-induced current at holding potential -80 mV by two electrode voltage clamp method. It counts as functional.
Assay [3] deals with T1, Glutamate receptor 1. As to the kind of experiment: Antagonist activity against rat GluR1 flop expressed in Xenopus laevis oocyte assessed as inhibition of glutamate-induced current at holding potential -80 mV by two electrode voltage clamp method. It counts as functional.
In assay [4] the target is T1, Glutamate receptor 1. As to the kind of experiment: Antagonist activity against rat GluR1 flop expressed in Xenopus laevis oocyte assessed as inhibition of glutamate-induced current at holding potential -60 mV by two electrode voltage clamp method. It counts as functional.
Assay [5] concerns the target T2, Glutamate receptor ionotropic, AMPA. As to the kind of experiment: Antagonist activity against rat brain AMPA receptor expressed in Xenopus laevis oocyte assessed as inhibition of kainate-induced current by two electrode voltage clamp method at holding potential -60 mV.
Assay [6] has the same target. As to the kind of experiment: Antagonist activity against rat brain AMPA receptor expressed in Xenopus laevis oocyte assessed as inhibition of kainate-induced current by two electrode voltage clamp method at holding potential -40 mV.
For assay [7] the target is unchanged. As to the kind of experiment: Antagonist activity against rat brain AMPA receptor expressed in Xenopus laevis oocyte assessed as inhibition of kainate-induced current by two electrode voltage clamp method at holding potential -100 mV.

The structures appear in SMILES notation.

Broadly, the Ki is a measure of affinity in units of concentration, obtained from inhibition or displacement. By IC50 is commonly meant the concentration at which inhibition is half-maximal.

T1 sequence (P19490 whole entry): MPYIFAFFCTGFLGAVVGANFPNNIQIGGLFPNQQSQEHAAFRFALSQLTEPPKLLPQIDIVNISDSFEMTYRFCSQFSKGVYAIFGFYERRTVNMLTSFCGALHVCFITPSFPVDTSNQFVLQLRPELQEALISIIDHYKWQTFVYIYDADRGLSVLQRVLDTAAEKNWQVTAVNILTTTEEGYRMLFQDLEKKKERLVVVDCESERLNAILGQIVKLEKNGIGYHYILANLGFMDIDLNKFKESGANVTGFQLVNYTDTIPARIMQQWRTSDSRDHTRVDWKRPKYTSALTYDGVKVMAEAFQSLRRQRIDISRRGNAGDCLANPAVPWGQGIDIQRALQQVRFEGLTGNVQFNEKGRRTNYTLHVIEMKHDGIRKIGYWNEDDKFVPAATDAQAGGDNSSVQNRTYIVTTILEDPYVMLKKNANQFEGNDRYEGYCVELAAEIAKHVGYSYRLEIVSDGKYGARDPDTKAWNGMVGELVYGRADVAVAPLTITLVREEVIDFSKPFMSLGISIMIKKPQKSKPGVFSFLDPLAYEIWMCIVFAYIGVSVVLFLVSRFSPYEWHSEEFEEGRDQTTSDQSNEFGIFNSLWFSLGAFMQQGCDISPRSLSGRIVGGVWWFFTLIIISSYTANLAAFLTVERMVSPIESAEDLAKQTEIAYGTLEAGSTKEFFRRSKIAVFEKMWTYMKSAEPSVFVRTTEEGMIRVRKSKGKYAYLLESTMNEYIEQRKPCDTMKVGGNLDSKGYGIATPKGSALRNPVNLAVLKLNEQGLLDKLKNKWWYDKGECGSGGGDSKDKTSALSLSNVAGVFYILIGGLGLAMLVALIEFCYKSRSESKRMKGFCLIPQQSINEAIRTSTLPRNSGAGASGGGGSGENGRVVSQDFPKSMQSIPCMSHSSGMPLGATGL

For the compound `CCCC(=O)N[C@@H](Cc1ccc(O)cc1)C(=O)NCCCCCNCCCCCN`, the inhibition constant (Ki) in assay [1] is 13 nM; in assay [3] it was 95 nM; in assay [4], 460 nM. Moreover, in assay [2], the IC50 was 207 nM.
`CCCC(=O)N[C@@H](Cc1ccc(O)cc1)C(=O)NCCCCNCCCCCCN`: the IC50 in assay [2] was 324 nM. In addition, the inhibition constant Ki in assay [3] worked out at 53 nM.
`CCCC(=O)N[C@@H](Cc1ccc(O)cc1)C(=O)NCCCCCNCCCCCCCCN`: the Ki worked out at 37 nM in assay [1], 330 nM in assay [3] and 2300 nM in assay [4]. In assay [2], the IC50 is 160 nM.
In the case of `CCCC(=O)N[C@@H](Cc1ccc(O)cc1)C(=O)NCCCCCNCCCCCCCCCCCCN`, the Ki in assay [1] was 77 nM; in assay [3] it was 480 nM; in assay [4] it was 3100 nM.
With `CCCC(=O)N[C@@H](Cc1ccc(O)cc1)C(=O)NCCNCCCCCCN`, the IC50 in assay [2] came to 310 nM. Further, the Ki in assay [3] was 208 nM.
On to `CCCC(=O)N[C@@H](Cc1ccc(O)cc1)C(=O)NCCCCCNCCCN`, for which the figures for the Ki in assay [1], in assay [3] and in assay [4] were 14 nM, 63 nM and 270 nM, respectively. For the same compound, the IC50 in assay [2] came out at 1100 nM.
As for `CCCC(=O)N[C@@H](Cc1ccc(O)cc1)C(=O)NCCCCNCCCCCCCN`, the IC50 worked out at 60.1 nM in assay [5], 16 nM in assay [2], 176 nM in assay [6] and 3.3 nM in assay [7]. Also, in assay [3], the Ki came to 38 nM.
For `CCCC(=O)N[C@@H](Cc1ccc(O)cc1)C(=O)NCCCCCCCCCNCCCCCCN`, the IC50 in assay [2] is 86 nM. In assay [3], the Ki was 37 nM.
As for `CCCC(=O)N[C@@H](Cc1ccc(O)cc1)C(=O)NCCCCCCCNCCCCN`, in assay [2], the IC50 was 138 nM. Also, in assay [3], the Ki was 168 nM.
Take `CCCC(=O)N[C@@H](Cc1ccc(O)cc1)C(=O)NCCCCCNCCCCCCN`: the Ki in assay [1] is 10 nM; in assay [3] it was 3 nM; in assay [4], 660 nM. For the same compound, the IC50 in assay [2] is 87 nM.
For `CCCC(=O)N[C@@H](Cc1ccc(O)cc1)C(=O)NCCCCCCCCNCCCCCCN`, the IC50 in assay [2] amounted to 25 nM. The Ki in assay [3] worked out at 77 nM.
Take `CCCC(=O)N[C@@H](Cc1ccc(O)cc1)C(=O)NCCCCCNCCN`: the Ki in assay [1] was 140 nM; in assay [3], 410 nM; in assay [4], 1500 nM. In assay [2], the IC50 came to 12300 nM.
In the case of `CCCC(=O)N[C@@H](Cc1ccc(O)cc1)C(=O)NCCCCCNCCCCN`, the Ki worked out at 13 nM in assay [1], 68 nM in assay [3] and 450 nM in assay [4]. In addition, the IC50 in assay [2] was 283 nM.
Consider `CCCC(=O)N[C@@H](Cc1ccc(O)cc1)C(=O)NCCCCCNCCCCCCCN`, for which the Ki came to 10 nM in assay [1], 110 nM in assay [3] and 1100 nM in assay [4]. Also, the 50% inhibitory concentration (IC50) in assay [2] was determined as 127 nM.
Regarding `CCCC(=O)N[C@@H](Cc1ccc(O)cc1)C(=O)NCCCCCNCCCCCCCCCCN`, the Ki amounted to 26 nM in assay [1], 180 nM in assay [3] and 1200 nM in assay [4].
With `CCCC(=O)N[C@@H](Cc1ccc(O)cc1)C(=O)NCCCCCCCNCCCCCCN`, the concentration for half-maximal inhibition (IC50) in assay [2] is 45 nM. For the same compound, the Ki in assay [3] worked out at 208 nM.
As to `CCCC(=O)N[C@@H](Cc1ccc(O)cc1)C(=O)NCCCNCCCCCCCCN`, the IC50 in assay [2] was 248 nM. Further, the Ki in assay [3] is 350 nM.
As for `CCCC(=O)N[C@@H](Cc1ccc(O)cc1)C(=O)NCCCCCCNCCCCCCN`, in assay [2], the IC50 amounted to 270 nM. Moreover, in assay [3], the inhibitory constant (Ki) amounted to 685 nM.
On to `CCCC(=O)N[C@@H](Cc1ccc(O)cc1)C(=O)NCCCNCCCCCCN`, for which the IC50 in assay [2] was 547 nM. Besides, in assay [3], the inhibition constant (Ki) amounted to 126 nM.
As to `CCCC(=O)N[C@@H](Cc1ccc(O)cc1)C(=O)NCCCCCCCCCNCCN`, the IC50 in assay [2] was determined as 122 nM. Besides, in assay [3], the inhibition constant (Ki) came out at 410 nM.
For the compound `CCCC(=O)N[C@@H](Cc1ccc(O)cc1)C(=O)NCCCCCNCCCCCCCCCN`, the Ki in assay [1] turned out to be 65 nM; in assay [3], 450 nM; in assay [4], 5000 nM. The IC50 in assay [2] stood at 798 nM.
As to `CCCC(=O)N[C@@H](Cc1ccc(O)cc1)C(=O)NCCCCCCCCNCCCN`, in assay [2], the 50% inhibitory concentration (IC50) was 39 nM. In addition, the Ki in assay [3] amounted to 65 nM.
`CCCC(=O)N[C@@H](Cc1ccc(O)cc1)C(=O)NCCCCCCNCCCCCN`: the IC50 in assay [2] was determined as 388 nM. The Ki in assay [3] stood at 468 nM.

The values are drawn from ChEMBL document CHEMBL1149498, “Uncompetitive antagonism of AMPA receptors: Mechanistic insights from studies of polyamine toxin derivatives” (J Med Chem, 2006).
